Measurements taken from US20210322508A1, “PEPTIDES AND COMPOSITIONS FOR TARGETED TREATMENT AND IMAGING” (SIGNABLOK, INC., priority 2018, published 2021).
Residues, ends and D or L forms follow the SMILES beside them.

Tests used:
[1] = test system: human pancreatic cancer PANC-1 xenograft; assay: PANC-1 xenograft mouse model, standalone and with GEM+ABX chemotherapy; format: in vivo
Experimental: Mice were implanted subcutaneously into the right flank with PANC-1 cells in equal parts of serum-free growth medium and Matrigel. Mice were monitored daily and tumor measurements were taken along the length and width using Vernier calipers twice weekly until sacrifice. Tumor volumes were calculated using a modified ellipsoidal formula: (Length×Width^2)/2. […] Body weight were measured. Mean tumor volumes were calculated. […] Survival was evaluated using Kaplan-Meier survival curves.

[2] = test system: intratumoral macrophages (F4/80); assay: Immunohistochemistry of intratumoral macrophages (F4/80) in PC xenografts; format: in vivo, mouse; details: PC xenografts (shown for BxPC-3)
Experimental: All staining and quantification procedures were performed by HistoTox Laboratories. Briefly, mice containing AsPC-1, BxPC-3, and Capan-1 tumors were humanely euthanized for necropsy at the end of the study. Excised tumors were fixed using 10% neutral buffered formalin for 1-2 days, processed for paraffin embedding, and sectioned at […]. Antigen retrieval for F4/80 was achieved using Proteinase K (Dako North America). Sections were blocked for peroxidase and alkaline phosphatase activity using Dual Endogenous Enzyme Block (Dako North America). Sections were then incubated with Protein Block (Dako North America) followed by primary antibody F4/80 (1:2000, AbD Serotec) diluted using 1% bovine serum albumin in Tris-buffered saline. […] Quantitative analysis of intratumoral F4/80 staining was determined using Visiopharm software.
Mice containing BxPC-3 tumors were humanely euthanized for necropsy at the end of the study. […] Quantitative analysis of intratumoral F4/80 staining was determined using Visiopharm software.
Immunohistochemistry. All staining and quantification procedures were performed by HistoTox Labs. […] Quantitative analysis of intratumoral F4/80 staining was determined using Visiopharm software.

[3] = Crossing of blood-retinal and blood-brain barrier (rho B-labeled); details: mouse, in vivo
Experimental: Litters of C57BL/6J (Jackson Laboratory, Bar Harbor, Me.) neonatal mice and nursing dams were exposed to a hyperoxia environment (75% oxygen) from postnatal day 7 (P7) to P12 and returned to normoxia until P17. The hyperoxia exposure causes degeneration of the immature retinal vessels. […] Beginning on P7, mice were treated until day P17 by daily i.p. injections of GF9, GF9-SLP, TREM-1/TRIOPEP-sSLP or vehicle (phosphate-buffered saline, pH 7.4; PBS). […] In another subset of experiments, rho B-labeled Gd-containing sSLP were used to confirm the ability of these targeted SLP to cross the BRB in other species (rats and rabbits). In another subset of experiments, neonatal mice and nursing dams were not subjected to a hyperoxia environment and reared in room air (RA). At P17, all mice were humanely sacrificed and their retinas were collected.
Litters of C57BL/6J (Jackson Laboratory, Bar Harbor, Me.) neonatal mice and nursing dams were exposed to a hyperoxia environment (75% oxygen) from postnatal day 7 (P7) to P12 and returned to normoxia until P17. The hyperoxia exposure causes degeneration of the immature retinal vessels. […] Beginning on P7, mice were treated until day P17 by daily i.p. injections of G-KV21, G-TE21 at indicated doses or vehicle (PBS, pH 7.4). In certain embodiments, neonatal mice and nursing dams were not subjected to a hyperoxia environment and reared in room air. […]

[4] = test system: human pancreatic cancer xenografts (cancer mice); details: mouse, in vivo
Experimental: Treatment persisted for 31, 29 and 29 days for mice containing AsPC-1, BxPC-3 and Capan-1 tumor xenografts, respectively. Mean tumor volumes are calculated and plotted. All results are expressed as the mean±SEM (n=6 mice per group). On the final day of treatment, tumor volumes were compared between the drug-treated and control groups. **, p<0.01; ***, p<0.001; ****, p<0.0001 (versus vehicle).

For `CC(C)C[C@H](NC(=O)[C@H](Cc1ccccc1)NC(=O)CN)C(=O)N[C@@H](CO)C(=O)N[C@@H](CCCCN)C(=O)N[C@@H](CO)C(=O)N[C@@H](CC(C)C)C(=O)N[C@H](C(=O)N[C@@H](Cc1ccccc1)C(=O)N[C@@H](Cc1c[nH]c2ccccc12)C(=O)N[C@@H](CCC(N)=O)C(=O)N[C@@H](CCC(=O)O)C(=O)N[C@@H](CCC(=O)O)C(=O)N[C@@H](CC[S+](C)[O-])C(=O)N[C@@H](CCC(=O)O)C(=O)N[C@@H](CC(C)C)C(=O)N[C@@H](Cc1ccc(O)cc1)C(=O)N[C@@H](CCCNC(=N)N)C(=O)N[C@@H](CCC(N)=O)C(=O)N[C@@H](CCCCN)C(=O)N[C@H](C(=O)O)C(C)C)C(C)C` (some centres unmarked) [G-KV21] (HELM PEPTIDE1{G.F.L.S.K.S.L.V.F.W.Q.E.E.[CS(=O)CC[C@H](N[*:1])C(=O)[*:2]].E.L.Y.R.Q.K.V}$$$$V2.0), which “survival, combined with GEM+ABX chemotherapy” value [1] is on record?
The value was “significantly improves survival”.

And the “tumor growth, combined with GEM+ABX chemotherapy” value ([1]; GEM+ABX days 1, 4, 8, 11, 15)?
The value was “sensitizes the tumor to chemotherapy”.

For `CC(C)C[C@H](NC(=O)[C@H](Cc1ccccc1)NC(=O)CN)C(=O)N[C@@H](CO)C(=O)N[C@@H](CCCCN)C(=O)N[C@@H](CO)C(=O)N[C@@H](CC(C)C)C(=O)N[C@H](C(=O)N[C@@H](Cc1ccccc1)C(=O)NCC(=O)N[C@@H](CCC(=O)O)C(=O)N[C@@H](CCC(=O)O)C(=O)N[C@@H](CC[S+](C)[O-])C(=O)N[C@@H](CCCNC(=N)N)C(=O)N[C@@H](CC(=O)O)C(=O)N[C@@H](CCCNC(=N)N)C(=O)N[C@@H](C)C(=O)N[C@@H](CCCNC(=N)N)C(=O)N[C@@H](C)C(=O)N[C@@H](Cc1c[nH]cn1)C(=O)N[C@H](C(=O)O)C(C)C)C(C)C` (some centres unmarked) [G-HV21] (HELM PEPTIDE1{G.F.L.S.K.S.L.V.F.G.E.E.[CS(=O)CC[C@H](N[*:1])C(=O)[*:2]].R.D.R.A.R.A.H.V}$$$$V2.0), which “intratumoral macrophage content / infiltration (F4/80)” value [2] is on record?
The value was “reduces the macrophage infiltration into the tumor”.

With `CC(C)C[C@H](NC(=O)[C@H](Cc1ccccc1)NC(=O)CN)C(=O)N[C@@H](CO)C(=O)N[C@@H](CCCCN)C(=O)N[C@@H](CO)C(=O)N[C@@H](CC(C)C)C(=O)N[C@H](C(=O)N[C@@H](Cc1ccccc1)C(=O)O)C(C)C` [GF9] (H-GFLSKSLVF-OH) as the molecule, how does the “passage of blood-retinal barrier (BRB) and blood-brain barrier (BBB)” value [3] read?
Its value is “pass the blood-retinal barrier (BRB) and blood-brain barrier (BBB)”.

And the “tolerability in cancer mice” value [4]?
The value was “Non-Toxic”.
